Here are results for 30 compounds from PMC8286840, “Identifying SARS-CoV-2 antiviral compounds by screening for small molecule inhibitors of Nsp3 papain-like protease” (Biochemical Journal, 2021).

Assay [1] addresses T1, SARS-CoV-2 PLpro (nsp3 1564–1878) (Severe acute respiratory syndrome coronavirus 2, UniProt P0DTD1). Description: biochemical. As to conditions: high concentration screen, read-out: % of control remaining. On the set-up: FRET-quenched peptide (Pro3) cleavage by PLpro, 10 min pre-incubation, slope over 20 min, normalised to no-compound control.
Assay [2] addresses T1, SARS-CoV-2 PLpro (nsp3 1564–1878). The assay is described as follows: biochemical. As to conditions: low concentration screen, read-out: % of control remaining. On the set-up: FRET-quenched peptide (Pro3) cleavage by PLpro, 10 min pre-incubation, slope over 20 min, normalised to no-compound control.

Where a name gives a salt, the structure may show the parent alone. Read-outs that look alike come from different tables or passages of the source. Where a SMILES comes first, the peptide text is derived from it. [ ]: non-standard residue; d: D form. dPhe(4-Cl) = N[C@H](Cc1ccc(Cl)cc1)C(=O)O; d2Nal = N[C@H](Cc1ccc2ccccc2c1)C(=O)O; Lys(iPr) = CC(C)NCCCC[C@H](N)C(=O)O; NMeY = CN[C@@H](Cc1ccc(O)cc1)C(=O)O; d3Pal = N[C@H](Cc1cccnc1)C(=O)O

For the compound `CC(C)c1cc(C(=O)N2Cc3ccc(CN4CCN(C)CC4)cc3C2)c(O)cc1O` [AT13387], in assay [1] (Well no.=5061), the remaining activity at 3.75 µM worked out at 99.9%. In assay [2] (Well no.=5061), the remaining activity at 1.25 µM stood at 95%.

For `CN[C@@H](C)C(=O)N[C@H]1CN(C(=O)CC(C)C)CC[C@H]2CC[C@@H](C(=O)NC(c3ccccc3)c3ccccc3)N2C1=O` [AT-406], the remaining activity at 3.75 µM in assay [1] (Well no.=5071) is 106%. Moreover, the remaining activity at 1.25 µM in assay [2] (Well no.=5071) stood at 102%.

Regarding `O=C(NC1CCNCC1)c1n[nH]cc1NC(=O)c1c(Cl)cccc1Cl` [AT-7519], the remaining activity at 3.75 µM in assay [1] (Well no.=2836) came out at 98.3%. Also, the remaining activity at 1.25 µM in assay [2] (Well no.=2836) amounted to 97.9%.

On to `O=C(NC(NC(=S)Nc1ccc(F)c([N+](=O)[O-])c1)C(Cl)(Cl)Cl)C(c1ccccc1)c1ccccc1` (centres unmarked) [ATM/ATR Kinase Inhibitor], for which the remaining activity at 3.75 µM in assay [1] (Well no.=2312) stood at 98.3%. The remaining activity at 1.25 µM in assay [2] (Well no.=2312) turned out to be 98.2%.

`CCNC(=O)c1noc(-c2cc(C(C)C)c(O)cc2O)c1-c1ccc(CN2CCOCC2)cc1` [AUY922 (NVP-AUY922)]: the remaining activity at 3.75 µM in assay [1] (Well no.=5005) turned out to be 102%. In addition, in assay [2] (Well no.=5005), the remaining activity at 1.25 µM amounted to 103%.

Turning to `COc1ccc2c(c1)C(c1ccc(F)cc1)=C(CN1CCCC1)CO2` [AX-024 hydrochloride], the remaining activity at 3.75 µM in assay [1] (Well no.=6930) worked out at 95.2%. In addition, in assay [2] (Well no.=6930), the remaining activity at 1.25 µM is 97%.

As for `Cc1ccc(NC(=O)c2cccc(C(C)(C)C#N)c2)cc1Nc1ccc2ncn(C)c(=O)c2c1` [AZ628], the remaining activity at 3.75 µM in assay [1] (Well no.=5037) worked out at 94.3%. In addition, the remaining activity at 1.25 µM in assay [2] (Well no.=5037) was determined as 88.5%.

With `Cc1cc(N2C[C@@H](C)N[C@@H](C)C2)ncc1-c1ccc(-c2nc3c(ccn3C)c(=O)[nH]2)cc1` [AZ6102], the remaining activity at 3.75 µM in assay [1] (Well no.=8482) is 96.4%. In addition, the remaining activity at 1.25 µM in assay [2] (Well no.=8482) turned out to be 97.8%.

In the case of `COc1cc(OC2CCN(C)CC2)ccc1Nc1ncc2c(n1)n(C1CCCC1)c(=O)n2C` [AZ 3146], in assay [1] (Well no.=5029), the remaining activity at 3.75 µM was 101%. For the same compound, the remaining activity at 1.25 µM in assay [2] (Well no.=5029) turned out to be 102%.

Take `Cc1cc(Nc2nc(N[C@@H](C)c3ccc(F)cc3)c(C#N)cc2F)n[nH]1` [AZ-960]: in assay [1] (Well no.=2980), the remaining activity at 3.75 µM was determined as 92.7%. Further, the remaining activity at 1.25 µM in assay [2] (Well no.=2980) amounted to 93.6%.

For `CC(=O)Nc1cccc2c1c(Sc1ccc(Cl)cc1)c(C)n2CC(=O)O` [AZD1981], the remaining activity at 3.75 µM in assay [1] (Well no.=7131) is 95.7%. Further, the remaining activity at 1.25 µM in assay [2] (Well no.=7131) came to 98.7%.

For `CNC(=O)c1cccc(-c2ccc3c(N4CCOC[C@@H]4C)nc(N4CCOC[C@@H]4C)nc3n2)c1` [AZD2014], the remaining activity at 3.75 µM in assay [1] (Well no.=5115) was 107%. In assay [2] (Well no.=5115), the remaining activity at 1.25 µM worked out at 106%.

For `COc1nccnc1NS(=O)(=O)c1cccc(Cl)c1Cl` [AZD2098], in assay [1] (Well no.=8225), the remaining activity at 3.75 µM was determined as 98.6%. The remaining activity at 1.25 µM in assay [2] (Well no.=8225) is 102%.

`COC1CCN(C(=O)c2cc(Cc3n[nH]c(=O)c4ccccc34)ccc2F)CC1` [AZD2461]: the remaining activity at 3.75 µM in assay [1] (Well no.=5172) came to 102%. In addition, the remaining activity at 1.25 µM in assay [2] (Well no.=5172) stood at 105%.

Turning to `COc1cc(CCc2cc(NC(=O)c3ccc(N4C[C@@H](C)N[C@@H](C)C4)cc3)n[nH]2)cc(OC)c1` [AZD4547], in assay [1] (Well no.=5125), the remaining activity at 3.75 µM was found to be 93.9%. For the same compound, in assay [2] (Well no.=5125), the remaining activity at 1.25 µM stood at 101%.

As to `Cc1cc(-c2nnc(N)nc2-c2ccc(F)cc2)cc(Cl)n1` [AZD4635], the remaining activity at 3.75 µM in assay [1] (Well no.=8355) turned out to be 96%. In assay [2] (Well no.=8355), the remaining activity at 1.25 µM was 98.3%.

Consider `CN[C@@H](C)C(=O)N[C@H](C(=O)N1CCC[C@H]1C(=O)N[C@H]1c2ccccc2C[C@H]1OCC#CC#CCO[C@@H]1Cc2ccccc2[C@@H]1NC(=O)[C@@H]1CCCN1C(=O)[C@@H](NC(=O)[C@H](C)NC)C1CCCCC1)C1CCCCC1` [AZD5582], for which the remaining activity at 3.75 µM was determined as 101% in assay [1] (Well no.=6358) and 93.5% in assay [1] (Well no.=8416). Further, the figures for the remaining activity at 1.25 µM in assay [2] (Well no.=6358) and in assay [2] (Well no.=8416) were 102% and 98.4%, respectively.

`Cn1cnc2c(F)c(Nc3ccc(Br)cc3Cl)c(C(=O)NOCCO)cc21` [AZD6244]: the remaining activity at 3.75 µM in assay [1] (Well no.=3028) was determined as 95.3%. The remaining activity at 1.25 µM in assay [2] (Well no.=3028) worked out at 95.9%.

Turning to `CN(C)C(=O)c1ccc(S(=O)(=O)c2ccc(NC(=O)[C@@](C)(O)C(F)(F)F)c(Cl)c2)cc1` [AZD7545], the remaining activity at 3.75 µM in assay [1] (Well no.=8528) came out at 98.2%. Also, the remaining activity at 1.25 µM in assay [2] (Well no.=8528) stood at 101%.

For the compound `NC(=O)Nc1cc(-c2cccc(F)c2)sc1C(=O)N[C@H]1CCCNC1` [AZD7762], the remaining activity at 3.75 µM in assay [1] (Well no.=2691) is 95%. Besides, the remaining activity at 1.25 µM in assay [2] (Well no.=2691) was found to be 94.4%.

As for `COc1ccc(-c2ccc3c(N4CCOC[C@@H]4C)nc(N4CCOC[C@@H]4C)nc3n2)cc1CO` [AZD8055], the remaining activity at 3.75 µM in assay [1] (Well no.=5293) turned out to be 97.4%. The remaining activity at 1.25 µM in assay [2] (Well no.=5293) is 99.1%.

As to `Cc1cc(C(=O)NOCCO)c(Nc2ccc(I)cc2F)n(C)c1=O` [AZD8330], the remaining activity at 3.75 µM in assay [1] (Well no.=5104) was determined as 106%. Also, the remaining activity at 1.25 µM in assay [2] (Well no.=5104) stood at 107%.

Take `CC(C)C[C@H](CO)Nc1nc(S[C@@H](C)c2ccccc2)nc2nc(N)sc12` [AZD8797]: the remaining activity at 3.75 µM in assay [1] (Well no.=8313) was found to be 103%. The remaining activity at 1.25 µM in assay [2] (Well no.=8313) was 103%.

For `CNC(=O)CN1CCC(Oc2cc3c(Nc4cccc(Cl)c4F)ncnc3cc2OC)CC1` [AZD8931], the remaining activity at 3.75 µM in assay [1] (Well no.=5144) amounted to 102%. The remaining activity at 1.25 µM in assay [2] (Well no.=5144) is 103%.

Regarding `C[C@@H](Oc1cc(NS(=O)(=O)N2CCC2)nc(SCc2cccc(F)c2F)n1)[C@@H](O)CO` [AZD-5069], the remaining activity at 3.75 µM in assay [1] (Well no.=8409) came out at 101%. In addition, in assay [2] (Well no.=8409), the remaining activity at 1.25 µM amounted to 102%.

Turning to `Cc1c2c(nn1C)CSCc1cc(n(C)n1)CSc1cc(c3ccccc3c1)OCCCc1c(C(=O)O)n(C)c3c-2c(Cl)ccc13` [AZD-5991], the remaining activity at 3.75 µM in assay [1] (Well no.=7076) was determined as 98.9%. Also, the remaining activity at 1.25 µM in assay [2] (Well no.=7076) was 101%.

Consider `Nc1nc(NC2CC2)c2ncn([C@H]3C=C[C@@H](CO)C3)c2n1` [Abacavir sulfate], for which the remaining activity at 3.75 µM in assay [1] (Well no.=5326) came to 95.9%. Moreover, the remaining activity at 1.25 µM in assay [2] (Well no.=5326) is 97.2%.

As for `CC(=O)N[C@H](Cc1ccc2ccccc2c1)C(=O)N[C@H](Cc1ccc(Cl)cc1)C(=O)N[C@H](Cc1cccnc1)C(=O)N[C@@H](CO)C(=O)N(C)[C@@H](Cc1ccc(O)cc1)C(=O)N[C@H](CC(N)=O)C(=O)N[C@@H](CC(C)C)C(=O)N[C@@H](CCCCNC(C)C)C(=O)N1CCC[C@H]1C(=O)N[C@H](C)C(N)=O` [Abarelix] (Ac-[d2Nal][dPhe(4-Cl)][d3Pal]S[NMeY][dN]L[Lys(iPr)]P[dA]-NH2), the remaining activity at 3.75 µM in assay [1] (Well no.=6560) amounted to 98.6%. Further, the remaining activity at 1.25 µM in assay [2] (Well no.=6560) was 95.8%.

For `C[C@]12CC[C@H](O)CC1=CC[C@@H]1[C@@H]2CC[C@]2(C)C(c3cccnc3)=CC[C@@H]12` [Abiraterone (CB-7598)], the remaining activity at 3.75 µM in assay [1] (Well no.=5047) is 106%. The remaining activity at 1.25 µM in assay [2] (Well no.=5047) amounted to 101%.

Consider `CC(=O)O[C@H]1CC[C@@]2(C)C(=CC[C@@H]3[C@@H]2CC[C@]2(C)C(c4cccnc4)=CC[C@@H]32)C1` [Abiraterone Acetate (CB7630)], for which, in assay [1] (Well no.=5274), the remaining activity at 3.75 µM came out at 79.5%. The remaining activity at 1.25 µM in assay [2] (Well no.=5274) was found to be 88.4%.
